{"source": "patent US20260000658A1", "about": "“METHODS FOR THE TREATMENT OF PROLIFERATIVE GLOMERULONEPHRITIS” (INSTITUT NATIONAL DE LA SANTÉ ET DE LA RECHERCHE MÉDICALE, priority 2022, published 2026)", "system": "uninephrectomized Tg26^HE mice", "assay": "Uninephrectomized Tg26^HE mice (accelerated collapsing glomerulopathy model), vehicle or alpelisib for 4 weeks", "type": "in vivo, mouse", "protocol": "Scale bar P-S6RP, and P-AKTSer473 mean intensity quantification (n=5-6 mice per group). P. Serum creatinine level, and Blood urea nitrogen level of Tg26WT and Tg26HE mice at the time of sacrifice (4 weeks following uninephrectomy and treated either with vehicle or alpelisib) (n=8-9 mice per group)\nFor the uninephrectomy experiments, the right kidneys were removed under anesthesia. For the medical treatment of mice, 50 mg kg −1 alpelisib (MedChem Tronica) in 1% carboxymethylcellulose (Sigma Aldrich)+0.5% Tween (Sigma Aldrich) or vehicle (1% carboxymethylcellulose+0.5% Tween) was administered by oral gavage daily for the indicated periods of time. Blood and urines were obtained at the indicated times. At euthanasia, blood, urines, kidneys were harvested. In some experiments, spleens, hearts, and bone marrow (BM) in femurs and tibias were harvested as well. Tissues were fixed in 4% paraformaldehyde and paraffin embedded for immunohistochemical analysis, snap-frozen in Optimal Cutting Temperature (OCT), or stored at −80° C. for mRNA or protein analysis.\nMouse blood counts were analyzed using a hematology analyzer (ProCyte Dx; IDEXX Laboratories). Mouse serum creatinine, blood urea nitrogen, urinary albumin, and urinary creatinine were evaluated using an AU5800 (Beckman Coulter) autoanalyzer. Serum anti-dsDNA measurement was performed according to the manufacturer's instruction using mouse anti-dsDNA ELISA kit (LBIS). The absorbance was measured using Ininite M Nano (TECAN).\n4-μm kidney sections were stained with periodic acid-Schiff (PAS), Masson's Trichrome (MT), Periodic acid metenamine silver (PAM) or Hematoxylin and Eosin (HE) staining for histological analysis. The degree of glomerular lesions was evaluated using the following scoring system: 0=no lesion, 1=affecting up to 25% of the glomerulus, 2=affecting 25-50% of the glomerulus, 3=affecting 50-75% of the glomerulus, and 4=affecting 75-100%. At least 50 glomeruli per sample were measured for each analysis. An indirect immunoperoxidase method was used for immunohistochemistry. Briefly, after deparaffinization, antigen retrieval was performed with citrate buffer (pH6) or Tris-EDTA buffer (pH9 or pH6) using microwave or high temperature (95° C.). Endogenous peroxidase activity was quenched using 3% hydrogen peroxide; nonspecific protein binding was blocked using 2.5% normal horse serum (Vector Laboratories), and endogenous biotin activity was quenched using the Avidin/Biotin Blocking Kit (Vector Laboratories). When using mouse primary antibodies on mouse tissue, Klear mouse blocking reagent (Diagomics) was used to block endogenous mouse immunoglobulins. After blocking, the tissue sections were incubated with the primary antibodies overnight at 4° C. The following primary antibodies were used: rabbit anti-Ki67 antibody (SP6; Thermo Fisher Scientific), rabbit anti-P-S6RP antibody (D68F8; Cell Signaling Technology), mouse anti-P-AKT (Ser473) antibody (587F11; Cell Signaling Technology), rabbit anti-P-AKT (Thr308) antibody (C31E5E; Cell Signaling Technology), mouse anti-S6RP antibody (54E2; Cell Signaling Technology), chicken anti-GFP antibody (Abcam), guinea pig anti-Nephrin antibody (GP-N2; Progen), rabbit anti-Podocin antibody (P0372; Sigma Aldrich), mouse anti-WTI antibody (6F-H2; DAKO). The corresponding secondary antibodies including anti-mouse IgG, anti-rabbit IgG, anti-guinea pig IgG, biotinylated anti-rabbit IgG (Vector Laboratories), and biotinylated anti-mouse IgG (Vector Laboratories) were applied. For Avidin/Biotin detection, an R.T.U. Vectastain Kit (Vector Laboratories) or streptavidin (Thermo Fisher Scientific) was used. The immunoreactive antigens sites were detected with hydrogen peroxide and diaminobenzidine. For frozen immunofluorescent staining, frozen tissue sections (4 μm) were briefly air dried and fixed in 50% methanol/50% acetone. […]", "data": [{"smiles": "Cc1nc(NC(=O)N2CCC[C@H]2C(N)=O)sc1-c1ccnc(C(C)(C)C(F)(F)F)c1", "note": "[alpelisib, Alpelisib]", "values": [{"measurement": "AKT/mTOR pathway in glomeruli", "setting": "4 weeks treatment", "value": "profoundly blunted"}, {"measurement": "expression of Col1a, Col3a and Lcn2", "setting": "4 weeks treatment", "value": "reduced expression"}, {"measurement": "expression of podocyte markers", "setting": "4 weeks treatment", "value": "maintained expression of podocyte markers"}, {"measurement": "glomerular lesions, kidney histology", "setting": "4 weeks treatment", "value": "fewer glomerular lesions"}, {"measurement": "ratio kidney/body weight", "setting": "4 weeks treatment", "value": "improved"}, {"measurement": "albuminuria", "setting": "4 weeks treatment, vs vehicle", "value": "significantly improved"}, {"measurement": "kidney function (serum creatinine, blood urea nitrogen)", "setting": "4 weeks treatment, vs vehicle", "value": "significantly improved"}, {"measurement": "kidney lesions (title of FIG. 3)", "setting": "accelerated mouse model of collapsing glomerulopathy", "value": "improves kidney lesions"}, {"measurement": "surfaces of the kidneys at sacrifice", "setting": "uninephrectomy at 4 weeks old, 4 weeks treatment", "value": "regular and smooth"}]}]}
